Test system: Non-malignant S1 cells
Assay: 3D LrECM culture translational assay, Live/Dead viability/cytotoxicity (Calcein AM/EthD-1), non-malignant cells
Format: cell-based
Settings: 3D culture, FIG. 8B
Method: Twenty-one compounds were received and reconstituted to yield 10 mM stock solution. Compounds were independently tested on a 2D culture assay to determine cell survival. Combinations of compounds were then tested on a 6×6 matrix on 2D culture to determine synergistic dosing. Then functional validation of the synergistic combinations was determined in 3D culture. (See FIG. 2).
Non-malignant S1 and Malignant T4-2 cells were evaluated for growth inhibition or cell death with the determined concentrations. The cells were plated at a density of 2×10^4 (S1) or 1×10^4 (T4-2) cells per well on top of Matrigel layer and allowed to form multicellular tumor colonies for 4-5 days. Then the cells were treated with either single-drug or drug combinations as PCI designed to evaluate synergistic interactions. Fresh media containing testing drugs were replenished every other day. At the end of the assay, we analyzed morphology and viability/cytotoxicity using phase imaging and fluorescent detection with Live/Dead using viability/cytotoxicity (Calcein AM/EthD-1) kit (FIG. 8). 3D translational assay in non-malignant S1 and malignant T4-2 cells were repeated 3 times.

Structure (SMILES): COC[C@H](NC(=O)c1cnc(C)s1)C(=O)N[C@@H](COC)C(=O)N[C@@H](Cc1ccccc1)C(=O)[C@@]1(C)CO1 [Oprozomib, N-[(2S)-3-methoxy-1-[[(2S)-3-methoxy-1-[[(2S)-1-[(2R)-2-methyloxiran-2-yl]-1-oxo-3-phenylpropan-2-yl]amino]-1-oxopropan-2-yl]amino]-1-oxopropan-2-yl]-2-methyl-1,3-thiazole-5-carboxamide]
- cell proliferation in non-malignant S1 cells: promoted cell proliferation
